Source: patent US11879137B2, “Treatment of type 1 diabetes and autoimmune diseases or disorders” (THE CHILDREN'S MEDICAL CENTER CORPORATION, priority 2017, dated 2024)

Experiments:
PD-L1 on CD34+ cells = assay: Prostaglandin library screening and FACS of PD-L1 on human CD34+ cells; format: cell-based; conditions: for capacity to upregulate PD-L1 (MFI) in library screening: 10 μM, CD34+ cells from T1D patients; for PD-L1 expression by FACS analysis: CD34+ cells, 10 μM pulsed at 24 and 48 hours
From the text: FIGS. 17A-17J show prostaglandins enhance PD-L1 expression on human CD34^+ cells. (FIG. 17A-17B) Results of screening of a prostaglandin small molecule library tested for the ability to upregulate PD-L1 (MFI) on CD34^+ cells obtained from T1D patients. The schematic of the experimental design is shown in (A). The 3-color coding shown in (FIG. 17B) represents lowest PD-L1 MFI values (blue), median PD-L1 MFI values (pink) and highest PD-L1 MFI values (red). (FIG. 17C-17D) Representative flow cytometric analysis and quantitative bar graph of PD-L1 expression on CD34^+ cells from T1D patients pre- and post-pharmacologic modulation with PGE2 as compared to CD34^+ cells obtained from healthy controls. (FIG. 17E) PD-L1 and CXCR4 expression (mRNA) fold change was quantified for CD34^+ cells pre- and post-modulation with PGE2. (FIG. 17F) Migration assay using CD34^+ cells pre- and post-modulation with PGE2. (FIG. 17G) Confocal imaging of CD34^+ cells pre- and post-modulation with PGE2, showing DAPI (in blue) and PD-L1 (in green) staining. 63× magnification. Scale bar, 50 (FIG. 17H) IDO-1 expression (mRNA) fold change was quantified for CD34^+ cells pre- and post-modulation with PGE2. (FIG. 17I-17J) Representative flow cytometric analysis (FIG. 17I) and quantitative bar graph (FIG. 17J) of PD-L1 expression on CD34^+ cells from T1D patients pre- and post-pharmacologic modulation with 4 small molecule PGE2 agonists. All data are expressed as mean±SEM. *P<0.05, **P<0.001. Abbreviations: MFI, mean fluorescence intensity.
Pharmacological modulation of human CD34+ cells. 1×105 of isolated human CD34+ HSPCs (purity 99%) were cultured in 200 μl of StemSpan SFEM II media (SEMCELL Technologies Inc., Cambridge, MA, USA), and each compound in the Prostaglandin Screening Library II (Cayman Chemicals, Ann Arbor, MI), was added individually at day 0 and at day 1 at a concentration of 10 μM as previously reported by the inventors and others (9, 21). In another assay, isolated CD34+ cells from freshly isolated human PBMCs or from cryopreserved PBMCs, and processed as described earlier, were cultured in the presence of a cocktail of cytokines containing: 10 μg/ml heparin (SEMCELL Technologies Inc., Cambridge, MA, USA), 10 ng/ml human SCF (Miltenyi Biotec, San Diego, CA), 20 ng/ml human TPO (Miltenyi Biotec, San Diego, CA), 10 ng/ml human FGF-1 (Miltenyi Biotec, San Diego, CA), 100 ng/ml IGFBP2 (R&D Systems, Inc., Minneapolis, MN), and 500 ng/ml Angptl3 (R&D Systems, Inc., Minneapolis, MN). PGE2 (PromoKine, PromoCell Gmbh, Germany) was added by pulsing the culture at 0, 24h, 72h and 6 days with 2 μl of diluted PGE2 (10 μM). Cells were cultured for 7 days at 37° C. in 5% CO2, and CD34+ cells were then subjected to FACS analysis and were run on a FACSCelesta™ (Becton Dickinson, Franklin Lakes, NJ). Data were analyzed using FlowJo software version 8.7.3 (Treestar, Ashland, OR). The different cytokines used here and their related concentration as well as the choice of the incubation timing was used as previously reported in the literature (22).
Prostaglandin library screening. PGE2 has been described as a small molecule known to enhance the homing and engraftment of HSPCs. It was therefore sought to screen all known types of prostaglandins using the Prostaglandin Screening Library II, which contains 64 small molecules. Each small molecule contained in the library was first screened for its capacity to upregulate PD-L1 in human CD34+ cells isolated from T1D patients (FIG. 17A-17B). CD34+ cells isolated from T1D patients were cultured in StemSpan SFEMII and pulsed with each PG (prostaglandin) small molecule contained in the aforementioned library at a concentration of 10 μM at 24 and 48h. Using FACS analysis, the MFI (mean fluorescence intensity) of PD-L1 expression was calculated following treatment with each small molecule used to modulate CD34+ cells as compared to untreated/unmodulated CD34+ cells (FIG. 17B). […]

CD34+ cells = assay: qRT-PCR of PD-L1, CXCR4 and IDO-1 in prostaglandin-modulated CD34+ cells; format: cell-based, human; conditions: CD34+ cells upon modulation
Experimental: qRT-PCR. RNA was extracted from CD34+ cells using Direct-Zol™ RNA Kits (Zymo, Irvine, CA, USA) and Trizol Reagent (Invitrogen Carlsbad, CA), RNA quality was assessed by Multiskan™ GO Microplate spectrophotometer and the ratios of absorbance at 260 nm and 280 nm were assessed for all the samples. Only samples with RNA ratios within 1.9 were included in the present study. cDNA synthesis was made from purified total RNA by reverse transcription using High capacity cDNA Reverse Transcription RETROscript® Kit (Thermo Fisher Scientific, Waltham, MA, USA) followed by a pre-amplification using Taqman PreAmp Kit (Applied Biosystems) according to the manufacturer's instructions. qRT-PCR analysis was performed using TaqMan assays (Life Technologies, Grand Island, NY) containing PCR primers and TaqMan probes according to the manufacturer's instructions. Normalized expression values were determined using the ΔCt method. Quantitative reverse transcriptase polymerase chain reaction (qRT-PCR) data were normalized for the expression of GAPDH. qRT-PCR reactions were performed in triplicate in a 96-well format using an Applied Biosystems 7900HT fast real-time PCR instrument. Relative expression was calculated using the comparative threshold cycle method as previously described (23, 24). For two-group comparisons, a Student's t test was employed. Reported below are the main characteristics of the primers used: […]
Prostaglandin library screening. PGE2 has been described as a small molecule known to enhance the homing and engraftment of HSPCs. It was therefore sought to screen all known types of prostaglandins using the Prostaglandin Screening Library II, which contains 64 small molecules. Each small molecule contained in the library was first screened for its capacity to upregulate PD-L1 in human CD34+ cells isolated from T1D patients (FIG. 17A-17B). CD34+ cells isolated from T1D patients were cultured in StemSpan SFEMII and pulsed with each PG (prostaglandin) small molecule contained in the aforementioned library at a concentration of 10 μM at 24 and 48h. Using FACS analysis, the MFI (mean fluorescence intensity) of PD-L1 expression was calculated following treatment with each small molecule used to modulate CD34+ cells as compared to untreated/unmodulated CD34+ cells (FIG. 17B). A heat map was generated depicting the degree to which each PG small molecule affected PD-L1 expression on CD34+ cells (FIG. 17B), thus allowing for the evaluation of PG candidates. Based on its ability to modulate PD-L1 expression, PGE2 was selected as a candidate for further study; in addition, PGE2 has been described in the literature and has been tested in clinical trials as a potential therapy for enhancing HSPC engraftment following cord blood transplantation (21). Isolated CD34+ cells from healthy control patients (CTRL) and from T1D patients were cultured in StemSpan SFEMII and pulsed with 10 μM of PGE2 at 24 hours and 48 hours. […] It was therefore sought to perform a migration assay in order to assess the homing properties of PGE2-treated CD34+ cells (FIG. 17F).

[1] = tested on: NEU1, MTOR, MYC, IGF1R, VEGFA, RB1 in MDA-MB-231 cells; assay: mRNA of validated miRNA target genes (transfection control) in MDA-MB-231 cells; format: cell-based, human; conditions: VEGFA or RB1 as named for each agent, 48 h after transfection
Experimental: MDA-MB-231 breast cancer cells were cultured in DMEM high glucose medium (Gibco, Thermo Fisher Scientific; Waltham, MA USA) supplemented with 10% heat-inactivated fetal calf serum (Gibco, Thermo Fisher Scientific), 100 units/ml penicillin, 100 μg/ml streptomycin, and 2 mM L-glutamine. 2×10^5 cells were seeded in each well of a 6-well plate and transfected with 10 pmol of the miRNA mimic or miRNA mimic negative control, or 100 pmol of the anti-miR or anti-miR negative control (all from Exiqon, Qiagen) using the Lipofectamine RNAiMAX transfection reagent (Invitrogen, Thermo Fisher Scientific) in a final culture medium volume of 2 ml, following manufacturer's instructions. […] Forty-eight hours after transfection, cells were collected from each well for RNA extraction, cell lysate preparation and FACS analysis. RNA was extracted using Direct-zol RNA miniprep plus (Zymo research, Irvine, CA, USA) and RNA quality was checked and then retro-transcribed using RETROscript® Kit (Fisher Scientific) following manufacturer's instructions. Cell lysates were obtained in RIPA buffer (50 mmol/1 Tris-HCl, pH 8.0, 1% Triton-x, 0.5% sodium deoxycholate, 0.1% SDS, 150 mmol/1 sodium chloride) with protease inhibitor cocktail (Roche).
qRT-PCR for PD-L1 analysis was performed on retro-transcribed cDNA using SYBR® Green dye (Life Technologies, Thermo Fisher Scientific). Amplification was performed on a QuantStudio S6 Real Time PCR system (Thermo Fisher Scientific). To confirm a successful transfection, the mRNA level of genes known to be controlled by the targeted miRNAs were evaluated by SYBR® Green dye (Life Technologies, Thermo Fisher Scientific) according to the manufacturer's instructions. Normalized expression values were determined using the ΔΔCt method in treated as compared to negative treated samples, using GAPDH mRNA as endogenous reference. The miRNA-targeted genes tested, along with forward and reverse primer sequences used for their amplification, are listed in Table 13.
To determine if targeting the miRNA network decreases PD-L1 expression in human cancer setting, PD-L1-expressing MDA-MB-231 human breast cancer cells were transfected with a set of miRNA mimics or anti-miRs to either increase or decrease the function of a set of miRNAs not previously known to affect PD-L1 (miR-125b, miR-99a, miR-744, mir-599, miR-511, miR-206, miR-26b). The effect of treatment with miRNA mimics and anti-miRs on the percentage of PD-L1-expressing cells, as well as on PD-L1 mRNA and protein levels, was investigated. miRNA mimic/anti-miR treated-cells were compared to corresponding mimic/anti-miR negative control-treated cells by flow cytometric analysis, Real Time PCR and western blot to assess percentage of PD-L1-expressing cells, PD-L1 mRNA, and PD-L1 protein levels, respectively. A successful miRNA mimic/anti-miR transfection was confirmed by the detection of changed mRNA levels of the validated miRNA targets NEU1 (for miR-125b mimic), MTOR (for miR-99a mimic), MYC (for miR-744 mimic and miR-599 anti-miR), IGF1R (for miR-511 mimic), VEGFA (for miR-206 anti-miR) and RB1 (for miR-26b anti-miR) in treated cells (FIG. 22A). […] Lysates of miR-511 mimic and miR-206 anti-miR treated cells were not available for western blot analysis.

**Q.** With CCCCC[C@H](O)/C=C/[C@H]1[C@H](O)CC(=O)[C@@H]1CC(=O)CCCCC(=O)O [6-keto PGE1] as the compound, how does the “capacity to upregulate PD-L1 (MFI) in library screening” value (PD-L1 on CD34+ cells) read?
**A.** Its value is “strongest capacity”.

**Q.** And the “PD-L1 expression by FACS analysis” value (PD-L1 on CD34+ cells)?
**A.** Its value is “robust upregulation”.

**Q.** What does the source list for CCCCC(C)(C)[C@H](O)/C=C/[C@H]1[C@H](O)CC(=O)[C@@H]1C/C=C\CCCC(=O)Oc1ccc(NC(=O)c2ccc(NC(C)=O)cc2)cc1 [16,16-dimethyl PGE2 4-(4-acetamidobenzamido) phenyl ester]?
**A.** PD-L1 mRNA expression by RT-PCR (CD34+ cells): marked upregulation; capacity to upregulate PD-L1 (MFI) in library screening (PD-L1 on CD34+ cells): strongest capacity; PD-L1 expression by FACS analysis (PD-L1 on CD34+ cells): robust upregulation

**Q.** How did the “PD-L1 mRNA expression by RT-PCR” value (CD34+ cells) turn out when CCCCCCC[C@H](O)/C=C/[C@H]1[C@H](O)CC(=O)[C@@H]1C/C=C\CCCC(=O)O [20-ethyl PGE2] was run?
**A.** Its value is “marked upregulation”.

**Q.** And the “capacity to upregulate PD-L1 (MFI) in library screening” value (PD-L1 on CD34+ cells)?
**A.** Its value is “strongest capacity”.

**Q.** What about the “PD-L1 expression by FACS analysis” value (PD-L1 on CD34+ cells) of the same compound?
**A.** Its value is “robust upregulation”.

**Q.** For “miR-26b anti-miR: Anti-miR, CUAUCCUGAAUUACUUGA, SEQ ID NO: 8 (listed as RNA, chemistry not given here)”, which “mRNA levels of the validated miRNA target” value (shortened to “mRNA levels”) [1] is on record?
**A.** The value was “changed”.

**Q.** “miR-99a mimic: miRNA mimic, AACCCGUAGAUCCGAUCUUGUG, SEQ ID NO: 3 (listed as RNA, chemistry not given here)” was tested. Which “mRNA levels” value [1] did it give?
**A.** Its value is “changed”.

**Q.** For “miR-206 anti-miR: Anti-miR, CACACACUUCCUUACAUUCC, SEQ ID NO: 7 (listed as RNA, chemistry not given here)”, which “mRNA levels” value [1] is on record?
**A.** The value was “changed”.

**Q.** Which “mRNA levels” value [1] does the source give for “miR-511 mimic: miRNA mimic, AAUGUGUAGCAAAAGACAGA, SEQ ID NO: 2 (listed as RNA, chemistry not given here)” here?
**A.** The value was “changed”.

**Q.** How did the “mRNA levels” value [1] turn out when “miR-744 mimic: miRNA mimic, CUGUUGCCACUAACCUCAACCU, SEQ ID NO: 4 (listed as RNA, chemistry not given here)” was run?
**A.** Its value is “changed”.
